Experimental findings from patent US8013153B2, “Substituted pyrimidine kinase inhibitors” (Janssen Pharmaceutica, N.V., priority 2006, dated 2011) are described below.

The test system of series [1] is spontaneous intestinal adenoma formation. Nature of the series: C57BL/6J-APC Min-mouse model of human adenomatous polyposis coli. In kind it is in vivo, C57BL/6J-Apc min mice. As to conditions: 100 mg/kg orally q.d., versus vehicle-treated group. On the procedure:
The ability of Compound 50 to inhibit angiogenesis and tumor growth was tested in a spontaneous tumor model. the pre-cancerous polyp formation in the mouse model of human intestinal tumorigenesis.
Transgenic C57BL/6J-Apc min mice heterozygous for a dominant nonsense Apc mutation are highly susceptible to spontaneous intestinal adenoma formation (homozygous mice are not viable). One hundred percent of these animals will develop polyps by 12 weeks of age. This model is widely used for studying prevention of intestinal adenoma formation and is well described in the literature (Yang K, Edelmann W, Fan K, et. al. A mouse model of human familial adenomatous polyposis. J Exp Zool. 1997 15; 277(3):245-54).
Female C57BL/6J-Apc^Min mice (Jackson Laboratory, MN), 5 weeks of age, were housed (up to 10 mice per group) for a minimum of one week. Animals were then sorted into treatment groups based on body weight such that the mean body weight for the animals in each group was approximately the same. Small cohorts of animals (n=6) were sacrificed at day 1, before treatment to get a baseline number of polyps (mean polyp number at beginning of study). […]
Animals in the treated group (n=10) were dosed daily with Compound 50 at 100 mg/kg orally q.d. for one week. […] The intestine of each mouse was excised, perfused, stained (0.01% Trypan Blue) and polyps were counted under 10× magnification.

The target of the next series is T1, HER2 cytoplasmic domain (Homo sapiens, UniProt P04626).
T1 construct: polyhistidine (N)
T1 sequence (P04626 676-1255 limits assumed): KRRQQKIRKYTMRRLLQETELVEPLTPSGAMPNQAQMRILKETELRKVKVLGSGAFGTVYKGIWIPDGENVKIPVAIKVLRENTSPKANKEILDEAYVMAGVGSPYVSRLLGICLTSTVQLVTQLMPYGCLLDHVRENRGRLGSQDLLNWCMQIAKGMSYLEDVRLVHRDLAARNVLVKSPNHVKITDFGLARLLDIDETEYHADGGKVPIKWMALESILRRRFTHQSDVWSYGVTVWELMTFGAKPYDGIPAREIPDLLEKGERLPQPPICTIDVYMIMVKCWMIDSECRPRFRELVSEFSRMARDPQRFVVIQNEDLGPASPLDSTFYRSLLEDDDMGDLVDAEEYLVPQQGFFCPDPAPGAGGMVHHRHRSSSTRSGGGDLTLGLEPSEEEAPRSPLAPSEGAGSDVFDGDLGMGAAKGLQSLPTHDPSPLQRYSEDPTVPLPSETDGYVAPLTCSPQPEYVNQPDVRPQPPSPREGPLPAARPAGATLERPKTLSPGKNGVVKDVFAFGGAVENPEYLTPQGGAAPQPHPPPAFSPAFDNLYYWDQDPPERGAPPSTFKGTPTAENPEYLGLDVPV
Nature of the series: HER2 Kinase Screening Assay. The format is biochemical. As to conditions: > means no observed 50% inhibition at the indicated test concentration; ~ means approximately 50% inhibition at that concentration.

Another series has as its system A375 malignant melanoma. The series can be described thus: Inhibition of in vitro cell proliferation (A375).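 Also: cells plated for 24 h, given compound for 24 h, then labelled with 14C-thymidine for another 24 h, with DMSO-only wells as control and counts read by scintillation.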 In kind it is cell-based, human. The following applies: Homo sapiens, A-375, 14C-thymidine incorporation. (Dividing cells build labelled thymidine or BrdU into new DNA.)
The test system of a further series is HCT-116 colon carcinoma. Nature of the series: Inhibition of in vitro cell proliferation (HCT116).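 Also: cells exposed to compound for 24 h, then 14C-thymidine added for a further 24 h and its uptake into DNA counted by scintillation, DMSO-only wells as control.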 The format is cell-based, human. As to conditions: Homo sapiens, HCT-116, 14C-thymidine incorporation.
For series [2], the system named is HeLa cervical adenocarcinoma. The series can be described thus: Inhibition of in vitro cell proliferation (HeLa).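 Also: cells exposed to compound for 24 h, then labelled 24 h with methyl 14C-thymidine, with uptake into DNA counted by scintillation against DMSO-only control wells.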 In kind it is cell-based, human. The following applies: Homo sapiens, 14C-thymidine incorporation.
For a further series, the target named is T2, CDK1:Cyclin-B (Homo sapiens, UniProt P06493).
T2 construct: purchased New England Biolabs, Beverly, Mass; 6020; host or cells: insect cells
T2 sequence (P06493 whole entry): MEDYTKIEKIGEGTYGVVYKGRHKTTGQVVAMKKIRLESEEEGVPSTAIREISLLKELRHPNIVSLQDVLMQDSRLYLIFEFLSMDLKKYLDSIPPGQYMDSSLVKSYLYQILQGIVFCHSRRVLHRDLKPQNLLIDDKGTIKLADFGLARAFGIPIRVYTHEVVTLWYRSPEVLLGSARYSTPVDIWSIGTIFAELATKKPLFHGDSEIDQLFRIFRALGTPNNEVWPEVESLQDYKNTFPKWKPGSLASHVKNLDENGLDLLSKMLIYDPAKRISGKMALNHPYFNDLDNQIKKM
T2 sequence (P14635 whole entry partner): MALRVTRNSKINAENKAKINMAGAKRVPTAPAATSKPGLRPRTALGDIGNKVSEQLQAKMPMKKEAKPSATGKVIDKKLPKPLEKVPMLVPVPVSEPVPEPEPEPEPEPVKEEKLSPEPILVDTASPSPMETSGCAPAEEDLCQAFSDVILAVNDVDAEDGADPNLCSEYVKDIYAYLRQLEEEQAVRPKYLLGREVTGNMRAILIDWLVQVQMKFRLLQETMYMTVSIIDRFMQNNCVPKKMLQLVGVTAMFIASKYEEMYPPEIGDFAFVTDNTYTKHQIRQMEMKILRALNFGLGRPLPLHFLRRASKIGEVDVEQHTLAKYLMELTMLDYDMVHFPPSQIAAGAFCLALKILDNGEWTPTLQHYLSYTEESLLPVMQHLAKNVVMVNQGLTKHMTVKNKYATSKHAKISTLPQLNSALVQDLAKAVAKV
Nature of the series: CDK1 Screening Assay. The format is biochemical.

The next series deals with T3, RET cytoplasmic domain (Homo sapiens, UniProt P07949).
T3 construct: the RET cytoplasmic domain consisting of the last 492 amino acids of the intracellular domain; histidine tag (N); made in house; host or cells: Hi5 insect cells
T3 sequence (P07949 658-1114 limits assumed): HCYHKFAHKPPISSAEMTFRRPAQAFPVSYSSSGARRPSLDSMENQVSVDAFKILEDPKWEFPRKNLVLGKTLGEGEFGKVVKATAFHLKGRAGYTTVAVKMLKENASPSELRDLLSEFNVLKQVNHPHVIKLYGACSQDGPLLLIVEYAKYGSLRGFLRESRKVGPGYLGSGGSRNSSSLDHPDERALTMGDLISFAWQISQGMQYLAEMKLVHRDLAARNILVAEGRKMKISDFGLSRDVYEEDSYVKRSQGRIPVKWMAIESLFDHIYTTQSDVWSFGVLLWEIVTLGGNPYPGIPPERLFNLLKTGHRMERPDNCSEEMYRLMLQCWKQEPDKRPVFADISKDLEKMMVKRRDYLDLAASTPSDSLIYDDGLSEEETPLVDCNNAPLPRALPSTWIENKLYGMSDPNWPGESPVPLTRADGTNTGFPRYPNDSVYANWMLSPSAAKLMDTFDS
The series can be described thus: RET Kinase Screening Assay. The format is biochemical.

The target of series [3] is T4, rat VEGF-R2 kinase domain (Rattus norvegicus, UniProt O08775).
T4 construct: amino acids 786-1343 of the rat VEGF-R2 kinase domain; polyhistidine (N)
T4 sequence (O08775 786-1343): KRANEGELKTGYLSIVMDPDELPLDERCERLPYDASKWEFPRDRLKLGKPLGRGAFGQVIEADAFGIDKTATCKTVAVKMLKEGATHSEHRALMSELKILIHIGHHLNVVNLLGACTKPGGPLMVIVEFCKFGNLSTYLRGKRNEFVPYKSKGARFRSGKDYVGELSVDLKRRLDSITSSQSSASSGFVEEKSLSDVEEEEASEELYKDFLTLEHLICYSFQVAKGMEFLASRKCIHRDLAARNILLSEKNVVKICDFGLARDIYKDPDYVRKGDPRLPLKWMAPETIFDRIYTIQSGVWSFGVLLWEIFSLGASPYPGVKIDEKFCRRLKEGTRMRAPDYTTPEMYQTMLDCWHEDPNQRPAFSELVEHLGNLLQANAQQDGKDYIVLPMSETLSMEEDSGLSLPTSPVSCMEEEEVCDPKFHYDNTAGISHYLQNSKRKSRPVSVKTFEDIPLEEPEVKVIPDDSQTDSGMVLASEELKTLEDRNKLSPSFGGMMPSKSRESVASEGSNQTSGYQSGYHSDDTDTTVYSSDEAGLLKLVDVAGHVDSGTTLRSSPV
Nature of the series: VEGF-R2 Screening Assay. In kind it is biochemical. As to conditions: > means no observed 50% inhibition at the indicated test concentration; ~ means approximately 50% inhibition at that concentration; read-out: IC50 VEGF-R2.

In another series the target is T5, murine Aurora-A (Mus musculus, UniProt P97477).
T5 construct: replaced with the full length protein encoding the murine Aurora-A; made in house; host or cells: sf9 insect cells
T5 sequence (P97477 1-395): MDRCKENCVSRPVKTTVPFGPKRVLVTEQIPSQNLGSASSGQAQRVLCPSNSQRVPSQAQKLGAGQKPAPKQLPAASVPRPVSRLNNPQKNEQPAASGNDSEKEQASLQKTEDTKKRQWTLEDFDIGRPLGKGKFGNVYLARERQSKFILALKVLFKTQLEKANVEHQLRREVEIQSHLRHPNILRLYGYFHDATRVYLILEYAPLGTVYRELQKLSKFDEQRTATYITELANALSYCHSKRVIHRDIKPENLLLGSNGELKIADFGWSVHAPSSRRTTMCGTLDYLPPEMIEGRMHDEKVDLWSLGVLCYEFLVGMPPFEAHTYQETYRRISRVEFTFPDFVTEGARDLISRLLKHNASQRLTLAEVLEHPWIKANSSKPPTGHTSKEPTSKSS
The series can be described thus: Aurora-A Screening Assay. The format is biochemical.

As for “1-{4-[6-amino-5-(methoxyimino-methyl)-pyrimidin-4-yloxy]-2-chloro-phenyl}-3-ethyl-urea [Cpd 50]”, the “body weights at study end” value in series [1] is “comparable”.

As usually defined, the IC50 is the point on the concentration scale where inhibition reaches its midpoint. As to `CC(=O)N1CCN(CCCON=Cc2c(N)ncnc2Oc2ccc3[nH]c(C)cc3c2F)CC1` [Cpd 23, 4-amino-6-(4-fluoro-2-methyl-1H-indol-5-yloxy)-pyrimidine-5-carbaldehyde O-[3-(4-acetyl-piperazin-1-yl)-propyl]-oxime], the IC50 is 1.78 µM against HER2 cytoplasmic domain; more than 10 µM with A375 malignant melanoma; more than 10 µM in the series with HCT-116 colon carcinoma; more than 10 µM in series [2]; more than 100 µM on CDK1:Cyclin-B; 8.32 µM against RET cytoplasmic domain. Also, the half-inhibitory concentration (IC50) in series [3] is 0.082 µM; against murine Aurora-A, more than 100 µM.

Consider `Cc1cc2c(F)c(Oc3ncnc(N)c3/C=N/O)ccc2[nH]1` [Cpd 27, 4-amino-6-(4-fluoro-2-methyl-1H-indol-5-yloxy)-pyrimidine-5-carbaldehyde oxime], for which the IC50 was approximately 10 µM against HER2 cytoplasmic domain; 0.492 µM in the series on A375 malignant melanoma; 1.14 µM with HCT-116 colon carcinoma; 0.472 µM in series [2]; more than 100 µM against CDK1:Cyclin-B; more than 10 µM on RET cytoplasmic domain. Further, the IC50 in series [3] was 0.033 µM; at murine Aurora-A, approximately 10 µM.

With `CNC(=O)n1c(C)cc2cc(Oc3ncnc(N)c3C=NOC)ccc21` [Cpd 49, 5-[6-amino-5-(methoxyimino-methyl)-pyrimidin-4-yloxy]-2-methyl-indole-1-carboxylic acid methylamide], the IC50 against HER2 cytoplasmic domain was approximately 100 µM; in the series on A375 malignant melanoma it was 1.39 µM; with HCT-116 colon carcinoma, 3.14 µM; in [2] it was 2.98 µM; on CDK1:Cyclin-B, more than 100 µM; against RET cytoplasmic domain, approximately 10 µM. Moreover, the values for the IC50 (in [3]; against murine Aurora-A) were 0.001 µM and more than 100 µM, respectively.

With `CNC(=O)Nc1ccc(Oc2ncnc(N)c2C=NOC)cc1Cl` [Cpd 51, 1-{4-[6-amino-5-(methoxyimino-methyl)-pyrimidin-4-yloxy]-2-chloro-phenyl}-3-methyl-urea], the IC50 was more than 100 µM against HER2 cytoplasmic domain; 4.09 µM with A375 malignant melanoma; 4.21 µM in the series on HCT-116 colon carcinoma; 3.75 µM in series [2]; more than 100 µM against CDK1:Cyclin-B; approximately 1 µM at RET cytoplasmic domain. The IC50 is 0.025 µM in series [3] and more than 100 µM at murine Aurora-A.

Take `CCNC(=O)Nc1ccc(Oc2ncnc(N)c2C=NOC)cc1C` [Cpd 66, 1-{4-[6-amino-5-(methoxyimino-methyl)-pyrimidin-4-yloxy]-2-methyl-phenyl}-3-ethyl-urea]: the IC50 at HER2 cytoplasmic domain is more than 100 µM; with A375 malignant melanoma it was more than 100 µM; in the series with HCT-116 colon carcinoma, more than 100 µM; in series [2] it was more than 100 µM; against CDK1:Cyclin-B, more than 100 µM; at RET cytoplasmic domain, more than 10 µM. Moreover, the IC50 is 0.18 µM in [3] and more than 100 µM at murine Aurora-A.

Turning to `CNC(=O)Nc1ccc(Oc2ncnc(N)c2C=NOC)cc1` [Cpd 68, 1-{4-[6-amino-5-(methoxyimino-methyl)-pyrimidin-4-yloxy]-phenyl}-3-methyl-urea], the IC50 is more than 100 µM on HER2 cytoplasmic domain; more than 10 µM with A375 malignant melanoma; more than 10 µM in the series on HCT-116 colon carcinoma; more than 10 µM in series [2]; more than 100 µM on CDK1:Cyclin-B; more than 10 µM against RET cytoplasmic domain. Also, the IC50 in [3] is 0.233 µM; against murine Aurora-A, more than 10 µM.

With `CCNC(=O)Nc1ccc(Oc2ncnc(N)c2C=NOC)cc1` [Cpd 69, 1-{4-[6-amino-5-(methoxyimino-methyl)-pyrimidin-4-yloxy]-phenyl}-3-ethyl-urea], the IC50 at HER2 cytoplasmic domain is more than 100 µM; in the series on A375 malignant melanoma, more than 10 µM; in the series on HCT-116 colon carcinoma, more than 10 µM; in [2], more than 10 µM; on CDK1:Cyclin-B it was more than 100 µM; against RET cytoplasmic domain, more than 10 µM. Besides, the IC50 in series [3] was 0.142 µM; at murine Aurora-A it was more than 10 µM.
